Results reported in ChEMBL document CHEMBL5150058, “Synthesis and biological evaluation of novel photo-clickable adenosine and cyclic ADP-ribose analogs: 8-N3-2'-O-propargyladenosine and 8-N3-2'-O-propargyl-cADPR” (Bioorg Med Chem, 2022).
One block for each compound: values may come before it. The source made the active and inactive calls. The calls are words filed in the database; no cut-off is given here.

Tests used:
[1] = tested on: Strongylocentrotus purpuratus; assay: Agonist activity at cADPR binding protein in sea urchin egg homogenate assessed as increase in Ca2+ release at 100 uM by Fluo-3 based fluorescence assay relative to control; type: tissue-based
[2] = Antagonist activity at cADPR binding protein in sea urchin egg homogenate assessed as inhibition of cADPR-induced Ca2+ release by Fluo-3 based fluorescence assay; type: tissue-based, Strongylocentrotus purpuratus
[3] = Agonist activity at cADPR binding protein in sea urchin egg homogenate assessed as increase in Ca2+ release by Fluo-3 based fluorescence assay; type: tissue-based, Strongylocentrotus purpuratus
[4] = tested on: U2OS; assay: Agonist activity at cADPR binding protein in human U2OS cells expressing GCaMP6M assessed as increase in Ca2+ release at 30 uM by confocal Ca2+ imaging analysis; type: cell-based; conditions: filed as agonist

Activity [1]: < 10%
Structure (SMILES): C#CCO[C@@H]1[C@H](O)[C@H]2COP(=O)(O)OP(=O)(O)OC[C@H]3O[C@H]([C@H](O)[C@@H]3O)[n+]3cnc4c(nc(N=[N+]=[N-])n4[C@@H]1O2)c3N

IC50 [2]: 7 nM
Structure (SMILES): [N-]=[N+]=Nc1nc2c(N)[n+]3cnc2n1[C@@H]1O[C@H](COP(=O)(O)OP(=O)(O)OC[C@H]2O[C@@H]3[C@H](O)[C@@H]2O)[C@@H](O)[C@H]1O

EC50 [3]: 8460 nM
Structure (SMILES): C#CCO[C@@H]1[C@H](O)[C@H]2COP(=O)(O)OP(=O)([O-])OC[C@H]3O[C@H]([C@H](O)[C@@H]3O)[n+]3cnc4c(ncn4[C@@H]1O2)c3N

EC50 [3]: 110 nM
Structure (SMILES): Nc1c2ncn3c2nc[n+]1[C@@H]1O[C@H](COP(=O)([O-])OP(=O)(O)OC[C@H]2O[C@@H]3[C@H](O)[C@@H]2O)[C@@H](O)[C@H]1O
Activity [4]: Active
